Legend:
[1] = Solubility of paclitaxel in eugenol and in egg phosphatidylcholine/eugenol/water mixture; format: physicochemical
Text: The solubility of a given active in a mixture of hydrophobe and lipid is typically a very strongly increasing function of an increasing hydrophobe:lipid ratio, because the hydrophobe can generally be chosen specifically for its ability to solubilize the particular active whereas the choice of lipid has much more to do with its ability to form liquid crystals (in the presence of the hydrophobe, in particular).

[2] = Solubilizing paclitaxel in GRAS essential oils; format: physicochemical

solubility in lipid/eugenol/water mixture ([1]; in a mixture of 42% egg phosphatidylcholine, 35% eugenol, and 23% water): less than 1.5% | solubility in eugenol ([1]; in eugenol): over 15 % by weight | Paclitaxel solubility (w/w, approx) ([2]; in essential oil: Oil of bay): ~16% w/w | Paclitaxel solubility (w/w, approx) ([2]; in essential oil: Sweet basil): ~7% w/w | Paclitaxel solubility (w/w, approx) ([2]; in essential oil: Thyme): ~10% w/w
SMILES: CC(=O)O[C@H]1C(=O)[C@@]2(C)[C@H]([C@H](OC(=O)c3ccccc3)[C@]3(O)C[C@H](OC(=O)[C@H](O)[C@@H](NC(=O)c4ccccc4)c4ccccc4)C(C)=C1C3(C)C)[C@]1(OC(C)=O)CO[C@@H]1C[C@@H]2O [Paclitaxel]
